Laboratory results taken from PubChem BioAssay (NCI).
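Five concentrations, 48 hours, 96-well plates. At the TGI there is no net growth.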

How the values were obtained:
Assay in all cases: DTP human tumour cell line panel, 48 h
EKVX NSCLC = test system: EKVX NSCLC
SF-539 CNS = test system: SF-539 CNS
HCT-15 colon = test system: HCT-15 colon
SF-295 CNS = test system: SF-295 CNS
SNB-78 CNS = test system: SNB-78 CNS
SN12C renal = test system: SN12C renal
U251 CNS = test system: U251 CNS
IGROV1 ovarian = test system: IGROV1 ovarian
M19-MEL melanoma = test system: M19-MEL melanoma
HOP-62 NSCLC = test system: HOP-62 NSCLC
SW-620 colon = test system: SW-620 colon
HOP-92 NSCLC = test system: HOP-92 NSCLC
RPMI-8226 leukemia = test system: RPMI-8226 leukemia
UACC-257 melanoma = test system: UACC-257 melanoma
SK-MEL-5 melanoma = test system: SK-MEL-5 melanoma
NCI-H522 lung = test system: NCI-H522 lung
OVCAR-3 ovarian = test system: OVCAR-3 ovarian
XF 498 CNS = test system: XF 498 CNS
TK-10 renal = test system: TK-10 renal
OVCAR-4 ovarian = test system: OVCAR-4 ovarian
HCT-116 colon = test system: HCT-116 colon
NCI-H460 lung = test system: NCI-H460 lung
K-562 leukemia = test system: K-562 leukemia
SK-OV-3 ovarian = test system: SK-OV-3 ovarian
KM12 colon = test system: KM12 colon
A498 renal = test system: A498 renal
LOX IMVI melanoma = test system: LOX IMVI melanoma
HCC-2998 colon = test system: HCC-2998 colon
CCRF-CEM leukemia = test system: CCRF-CEM leukemia
A549 NSCLC = test system: A549 NSCLC
DMS 273 small cell lung = test system: DMS 273 small cell lung
786-0 renal = test system: 786-0 renal
M14 melanoma = test system: M14 melanoma
KM20L2 colon = test system: KM20L2 colon
ACHN renal = test system: ACHN renal
DMS 114 small cell lung = test system: DMS 114 small cell lung
MALME-3M melanoma = test system: MALME-3M melanoma
COLO 205 colon = test system: COLO 205 colon
MOLT-4 leukemia = test system: MOLT-4 leukemia
UO-31 renal = test system: UO-31 renal
DLD-1 colon = test system: DLD-1 colon
SK-MEL-28 melanoma = test system: SK-MEL-28 melanoma
SNB-19 CNS = test system: SNB-19 CNS
UACC-62 melanoma = test system: UACC-62 melanoma
SNB-75 CNS = test system: SNB-75 CNS
SF-268 CNS = test system: SF-268 CNS
LXFL 529 NSCLC = test system: LXFL 529 NSCLC
OVCAR-5 ovarian = test system: OVCAR-5 ovarian
RXF-631 renal = test system: RXF-631 renal
HT29 colon = test system: HT29 colon
NCI-H23 lung = test system: NCI-H23 lung
OVCAR-8 ovarian = test system: OVCAR-8 ovarian
SK-MEL-2 melanoma = test system: SK-MEL-2 melanoma
HOP-18 NSCLC = test system: HOP-18 NSCLC
HL-60(TB) leukemia = test system: HL-60(TB) leukemia
RXF 393 renal = test system: RXF 393 renal

NC(=O)c1c(-c2ccccc2)c(-c2ccccc2)cc2c(=O)c3ccccc3[nH]c12
TGI (EKVX NSCLC): > 100 µM | TGI (SF-539 CNS): 37.4 µM | TGI (HCT-15 colon): > 100 µM | TGI (SF-295 CNS): > 100 µM | TGI (SNB-78 CNS): 54.1 µM | TGI (SN12C renal): > 100 µM | TGI (U251 CNS): > 100 µM | TGI (IGROV1 ovarian): 74.3 µM | TGI (M19-MEL melanoma): 79.3 µM | TGI (HOP-62 NSCLC): 58.5 µM | TGI (SW-620 colon): > 100 µM | TGI (HOP-92 NSCLC): 55.5 µM | TGI (RPMI-8226 leukemia): > 100 µM | TGI (UACC-257 melanoma): > 100 µM | TGI (SK-MEL-5 melanoma): 32.2 µM | TGI (NCI-H522 lung): 20 µM | TGI (OVCAR-3 ovarian): 46.4 µM | TGI (XF 498 CNS): 36.6 µM | TGI (TK-10 renal): 35.6 µM | TGI (OVCAR-4 ovarian): 30.4 µM | TGI (HCT-116 colon): 35.9 µM | TGI (NCI-H460 lung): 76.8 µM | TGI (K-562 leukemia): > 100 µM | TGI (SK-OV-3 ovarian): 54.2 µM | TGI (KM12 colon): 78.6 µM | TGI (A498 renal): 39.7 µM | TGI (LOX IMVI melanoma): > 100 µM | TGI (HCC-2998 colon): > 100 µM | TGI (CCRF-CEM leukemia): > 100 µM | TGI (A549 NSCLC): 50.6 µM | TGI (DMS 273 small cell lung): 46.6 µM | TGI (786-0 renal): 21.5 µM | TGI (M14 melanoma): > 100 µM | TGI (KM20L2 colon): 72.9 µM | TGI (ACHN renal): 37.7 µM | TGI (DMS 114 small cell lung): 56.8 µM | TGI (MALME-3M melanoma): 37.1 µM | TGI (COLO 205 colon): > 100 µM | TGI (MOLT-4 leukemia): 44.7 µM | TGI (UO-31 renal): 80.2 µM | TGI (DLD-1 colon): > 100 µM | TGI (SK-MEL-28 melanoma): 37.6 µM | TGI (SNB-19 CNS): 52.4 µM | TGI (UACC-62 melanoma): 96.8 µM | TGI (SNB-75 CNS): 41.7 µM | TGI (SF-268 CNS): > 100 µM | TGI (LXFL 529 NSCLC): 32.7 µM | TGI (OVCAR-5 ovarian): > 100 µM | TGI (RXF-631 renal): 87.1 µM | TGI (HT29 colon): 42.9 µM | TGI (NCI-H23 lung): 43.5 µM | TGI (OVCAR-8 ovarian): 50 µM | TGI (SK-MEL-2 melanoma): 45.1 µM

N/N=C1\C(=O)N(c2ccc(Cl)c(Cl)c2)C(=O)C1C(=O)Nc1ccc(Cl)c(Cl)c1 (centres undefined)
TGI (EKVX NSCLC): > 100 µM | TGI (SF-539 CNS): > 100 µM | TGI (HCT-15 colon): > 100 µM | TGI (SF-295 CNS): > 100 µM | TGI (SNB-78 CNS): 79.5 µM | TGI (SN12C renal): > 100 µM | TGI (U251 CNS): > 100 µM | TGI (IGROV1 ovarian): > 100 µM | TGI (M19-MEL melanoma): > 100 µM | TGI (HOP-62 NSCLC): > 100 µM | TGI (SW-620 colon): > 100 µM | TGI (HOP-92 NSCLC): > 100 µM | TGI (RPMI-8226 leukemia): > 100 µM | TGI (UACC-257 melanoma): > 100 µM | TGI (SK-MEL-5 melanoma): 69.6 µM | TGI (NCI-H522 lung): > 100 µM | TGI (OVCAR-3 ovarian): > 100 µM | TGI (TK-10 renal): > 100 µM | TGI (OVCAR-4 ovarian): > 100 µM | TGI (HCT-116 colon): > 100 µM | TGI (NCI-H460 lung): > 100 µM | TGI (K-562 leukemia): > 100 µM | TGI (HOP-18 NSCLC): > 100 µM | TGI (KM12 colon): > 100 µM | TGI (A498 renal): > 100 µM | TGI (HCC-2998 colon): > 100 µM | TGI (CCRF-CEM leukemia): > 100 µM | TGI (A549 NSCLC): > 100 µM | TGI (786-0 renal): > 100 µM | TGI (M14 melanoma): > 100 µM | TGI (KM20L2 colon): > 100 µM | TGI (ACHN renal): > 100 µM | TGI (DMS 114 small cell lung): > 100 µM | TGI (MALME-3M melanoma): > 100 µM | TGI (HL-60(TB) leukemia): > 100 µM | TGI (MOLT-4 leukemia): > 100 µM | TGI (UO-31 renal): 84 µM | TGI (DLD-1 colon): > 100 µM | TGI (SK-MEL-28 melanoma): > 100 µM | TGI (SNB-19 CNS): > 100 µM | TGI (UACC-62 melanoma): > 100 µM | TGI (SNB-75 CNS): > 100 µM | TGI (SF-268 CNS): > 100 µM | TGI (RXF 393 renal): > 100 µM | TGI (LXFL 529 NSCLC): > 100 µM | TGI (OVCAR-5 ovarian): > 100 µM | TGI (RXF-631 renal): > 100 µM | TGI (HT29 colon): > 100 µM | TGI (NCI-H23 lung): > 100 µM | TGI (OVCAR-8 ovarian): > 100 µM | TGI (SK-MEL-2 melanoma): > 100 µM
